# Measured values: US11573234B2, “Predicting responders to cyclophosphamide therapy” (Royal Melbourne Institute of Technology, priority 2017, dated 2023)
# Like-named read-outs stand apart in the source and are kept apart here.
# B1: IL-4: IL-4 (R&D systems, USA), cytokine used at 10 ng/ml (protein, UniProt P05112 25-153, looked up)
# Interleukin-4: HKCDITLQEIIKTLNSLTEQKTLCTELTVTDIFAASKNTTEKETFCRAATVLRQFYSHHEKDTRCLGATAQQFHRHKQLIRFLKRLDRNLWGLAGLNSCPVKEANQSTLENFLERLKTIMREKYSKCSS
# Tests used:
# [1] = test system: recurrent uterine and ovarian cancers; settings: cited from earlier work; for response rates: second line, recurrent disease, cisplatin uterine, carboplatin ovarian cancers
# [2] = test system: CCR4 expression on T cells in PBMCs; test: In vitro drug experiment: CCR4 expression on T cells in PBMCs; settings: 30 ng/ml, 72 hours
# Procedure: To determine the frequency and phenotype of T cell populations in PBMCs, multicolour flow cytometry was performed using the following surface antibodies: anti-CD3, anti-CD8, anti-CD4, anti-CD25, and anti-CCR4. Antibodies were diluted in dPBS with 5% HS (staining buffer). Cells were stained at room temperature for 15 mins at a final concentration of 10^7 cells/150 μl of antibody cocktail. Cells were then washed twice with stain buffer. A fixable dead cell dye (live/dead, fixable aqua dead cell stain kit, Life Technologies, USA) was used to distinguish between dead and live cells. […] Intracellular levels of FoxP3 were determined following fixation and permeabilisation of cells using a fixation/permeabilisation buffer kit (eBioscience, USA). […] Fluorescence minus one (FMO) controls and isotype-matched antibodies were also used to enable accurate gating. Data were analysed using Flowjo software (TreeStar, USA).
# CD4+ and CD8+ T cells were purified by labelling cells with the respective antibodies as described above, then using fluorescence activated cell sorting. […] Following incubation, cells were washed and CCR4 expression on Tregs and effector T cells were determined using flow cytometry as described above. […]
# [3] = test system: advanced treatment-refractory gynaecological tumours
# Procedure: (§1) Ten (10) human patients with gynaecological cancers with ages ranging from 62-82 years were recruited in a bicentric phase II trial. […] Disease progression was determined using RECIST and GCIG CA125 criteria (Rustin G J et al., (2011) Official journal of the International Gynaecological Cancer Society February; 21(2):419-23). From the time of recruitment, written consent was obtained from patients and pre-treatment blood samples were collected. Patients received oral doses of 50 mg cyclophosphamide twice daily (morning and evening), for 3 consecutive days and blood was collected 2 weeks later in EDTA coated tubes for whole blood and serum separation tubes for sera (BD Vacutainer, BD, USA). The treatment cycle and blood sampling were repeated at fortnightly intervals for up to 8 cycles. For healthy samples, buffy coats were obtained from routine blood donations, acquired at the Australian Red Cross Blood Service.
# [4] = test system: ID8 tumour bearing animals; settings: mouse, in vivo
# Procedure: To address the effects of LDCy on immunity in tumour bearing animals, ID8 implanted animals (n=5/group) were treated at post challenge (at the onset of detectable tumour growth in vivo) with one cycle of LDCy and assessed changes in T cell subsets ex-vivo at days 1, 7 and 14 post in vivo treatment by flow cytometry.
# [5] = test system: CCR4 expression on T cells
# Procedure: as §1
# Peripheral blood mononuclear cells (PBMCs) were isolated within 24 hours of blood collection via Ficoll (Amersham Pharmacia Biotech, Sweden) density gradient centrifugation. Cells were then washed in Dulbecco's Phosphate Buffered Saline (dPBS, Sigma-Aldrich, USA). The isolated PBMCs were frozen down in a freeze medium containing 10% DMSO (Sigma-Aldrich, USA) and 90% heat-inactivated fetal calf serum (GIBCO, Life Technologies, USA) or 90% human AB serum (Sera Laboratories International, UK) at a speed of 1° C./min at −80° C. and subsequently stored in liquid nitrogen. Upon thawing, each vial of frozen PBMCs was quickly defrosted in a 37° C. water-bath and re-suspended in AIM-V media (Life Technologies, USA) with 5% normal human serum (HS, Sigma-Aldrich, USA) (complete AIM-V media).
# Cells were then washed twice with stain buffer. […] Data were analysed using Flowjo software (TreeStar, USA).
# To investigate the effect of cyclophosphamide on CCR4 expression within T cells, the frequency of CCR4^+ cells pre-treatment (n=mean of 7-8 time points) was compared to the frequencies following each cycle of treatment (n=mean of 3-6 time points) for each individual patient.
# [6] = test system: CD107a on CD4+ and CD8+ T cells; settings: 3 increased % CCR4 patients; PMA and ionomycin 6 hours
# [7] = test system: acetylation of H3K9, H3K14 and H3K18; test: Histone 3 acetylation detection by flow cytometry; type: cell-based, human; settings: 72 hours
# Procedure: The acetylation of histone 3 at lysine (H3K)9, H3K14 and H3K18 was assessed using flow cytometry. […] In the last 4 hours of culture, 50 nM panobinostat (LBH589, a pan histone deacetylase (HDAC) inhibitor) was added to the IL-2 cultures. Cells were harvested and prepared for flow cytometry analysis as described above. Following surface labelling, fixation and permeabilisation, cells were labelled with unconjugated anti-H3K9, anti-H3K14 and anti-H3K18 (Cell Signalling Technology, USA). Secondary labelling was performed using an Alexa Fluor 488 conjugated donkey anti-rabbit Ig antibody (Biolegend, USA). Data were collected and analysed as above.
# [8] = increased % CCR4 patients at time points of CCR4 increase, p<0.05
molecule,measurement,setting,value
N.N.O=C([O-])C1(C(=O)[O-])CCC1.[Pt+2] [carboplatin],response rates,[1],around 20%
CC(=O)O[C@H]1C(=O)[C@@]2(C)[C@H]([C@H](OC(=O)c3ccccc3)[C@]3(O)C[C@H](OC(=O)[C@H](O)[C@@H](NC(=O)c4ccccc4)c4ccccc4)C(C)=C1C3(C)C)[C@]1(OC(C)=O)CO[C@@H]1C[C@@H]2O [paclitaxel],frequency of CCR4+ T cells in healthy PBMCs,[2],does not Significantly Increase
O=P1(N(CCCl)CCCl)NCCCO1 (centres unmarked) [cyclophosphamide],mean overall survival,[3]; CCR4 spike patients (n=4),476 ± 80 days
same,mean overall survival,[3]; CCR4 steady patients (n=6),163 ± 37 days
same,patients who achieved stable disease,[3]; of the 4 CCR4 spike patients,3
same,patients who achieved stable disease,[3]; of the 6 CCR4 steady patients,None
same,increase in survival,[3]; patients with CCR4 up-regulation in vivo and in the in vitro CUP pre-test,> 300 days
same,survival of CCR4 spike patients relative to CCR4 steady patients,[3]; spike vs steady patients,approximately 3 times
same,CCR4+ CD4 T cell effectors in peripheral blood,[4],a trend towards CCR4^+ CD4 T cell effector increases
same,CCR4+ Treg in peripheral blood,[4],no increases
same,CCR4+CD8+ T cells in peripheral blood,[4],clear increases
same,CD69+ CD4 T cell effectors in TILS,[4],a trend towards CD69^+ CD4 T cell effector increases
same,CD69+ Treg in TILS,[4],no CD69^+Treg increases
same,CD69+CD8+ T cells in tumour infiltrating lymphocytes (TILS),[4],clearly increased
same,"mean ratio of CCR4+ Tconvs to CCR4+ Tregs, increased % CCR4 vs constant % CCR4 patients","[5]; first 3 cycles of treatment, p<0.01",over 2 fold
same,"mean ratio of CCR4+ CD8+ T cells to CCR4+ Tregs, increased % CCR4 vs constant % CCR4 patients","[5]; first 3 cycles of treatment, p<0.05",over 3 fold
same,frequency of CCR4+ cells within Tregs compared to pre-treatment,[5]; increased % CCR4 patients at time points of CCR4 increase,not significantly increased
same,fold increase in the frequency of CCR4+ cells within CD8+ T cells compared to pre-treatment,[5]; [8],5 fold
same,fold increase in the frequency of CCR4+ cells within Tconvs compared to pre-treatment,[5]; [8],5 fold
same,"CCR4 mean fluorescence intensity (MFI) within Tregs, Tconvs and CD8+ T cells relative to pre-treatment","[5]; increased % CCR4 patients, all 3 populations",remained unchanged
same,patients with significant increases in the frequency of CCR4+ cells within CD3+ T cells,"[5]; of the 10 patients, following at least one cycle, within the first 3 cycles",4
same,clinical benefit (share of patients),"[1]; low dose, women with recurrent ovarian cancer",25-44%
same,mean frequency of CD107a+ cells in CD4+ and CD8+ populations vs pre-treatment,[6],"increased compared to pre-treatment samples, however neither increase was significant"
N.N.[Cl][Pt][Cl] [cisplatin],response rates,[1],around 20%
B1,acetylation of H3K9 in CD8+ T cells,"[7]; IL-4 10 ng/ml, p<0.05",slight but significant decrease
same,acetylation of H3K14,[7]; mafosfamide […] or IL-4 10 ng/ml,Neither mafosfamide nor IL-4 treatment resulted in a change
